Experimental findings from PMC5864073, “A D-enantiomer of the antimicrobial peptide GL13K evades antimicrobial resistance in the Gram positive bacteria Enterococcus faecalis and Streptococcus gordonii” (PLoS ONE, 2018) are described below.

Experiment [1] concerns E. faecalis OG1RF. Briefly: Triton X-100 induced bacterial autolysis assay. The experiment is classed as cell-based, Enterococcus faecalis. The note with it: PBS with 0.05% Triton X-100, peptide 100 mg/L, OD600 for 180 min. The protocol: (§1) The lysis assay followed an established protocol for bacterial autolysis with minor modifications. Exponentially growing cells were washed twice in PBS then washed once in ice-cold dH2O. The bacteria were incubated in PBS with 0.05% Triton X-100 and peptides at a concentration of 100 mg/L. OD600 was monitored spectrophotometrically for 180 min. In some experiments, the cells were incubated with the peptides for 2h in PBS+0.05% Triton X-100 and then cultured on THA to enumerate surviving cells.
(§2) Fig 2 Effect of GL13K peptides on Triton X-100 induced autolysis. E. faecalis OG1RF (A) or the autolysis-deficient strain TX5128 (B) were incubated in PBS with 0.05% Triton X-100 in the absence of peptide (control) or in the presence of 100 mg/L of L-GL13K or D-GL13K (D). The OD600 was recorded for 180 min and expressed as a percent of starting OD600 of the control sample. (C): Bactericidal activity of GL13K peptides in PBS+0.05% Triton X-100. E. faecalis OG1RF were incubated with 0.05% Triton X-100 in the absence of peptide (Ctrl) or with L-GL13K or D-GL13K for 2h. Surviving CFU were enumerated and are shown as mean ± SEM (N = 5). Peptide treated samples were compared to the untreated control by Kruskal-Wallis test with Dunn’s multiple comparison post-test. n.s., not significant.

Experiment [2] relates to wild-type E. faecalis. Briefly: Bactericidal activity in sodium phosphate buffer. Type of experiment: cell-based, Enterococcus faecalis. The note with it: 10^8 CFU/ml wild-type E. faecalis, no energy source, 10 mM sodium-phosphate pH 7.4, 2 h, 37°C, spotted on THA; D N = 4, L N = 3. The protocol: These assays were performed according to our established protocol with some modifications. Cells were washed three times in 0.9% NaCl and five μl of washed cells (10^9 CFU/ml) were added to the peptides diluted 2-fold (128 to 4 mg/L) in 45 μl of 10 mM sodium-phosphate, pH 7.4. The samples were incubated at 37°C for 2 h and 10 μl were then spotted on THA plates to assess bactericidal activity.

Experiment [3] deals with E. faecalis OG1RF. As to the kind of experiment: Bactericidal activity in PBS+0.05% Triton X-100. Type of experiment: cell-based, Enterococcus faecalis. The note with it: PBS+0.05% Triton X-100, peptide 100 mg/L, 2 h, CFU on THA, N = 5. The protocol:
as §1, §2

Experiment [4] deals with E. faecalis OG1RF dltA (TX5427). Briefly: Minimal inhibitory concentration, broth dilution. Type of experiment: cell-based, Enterococcus faecalis. The note with it: THB, 20 h, 37°C, OD600, mean ± SEM. The protocol:
(§3) The minimal inhibitory concentration (MIC) assays were performed essentially as described for cationic AMPs, but using streptococcal growth-friendly THB without the addition of blood or serum components. A working stock of 1-5x10^5 CFU/ml in 90 or 100 μl THB was added to 10 or 20 μl of a 2-fold serial peptide dilution in 0.01% acetic acid and incubated for 20 h at 37°C in 96-well polypropylene plates. The OD at 600 nm (OD600) was determined in a Synergy HT plate reader (BioTek, Winooski, VT). Control wells for growth without peptide and growth medium without bacteria were included. Bacterial cell numbers in the inoculum were verified by colony count.
A general note: Dilution methods test growth across graded concentrations, often in twofold steps.

The subject of experiment [5] is E. faecalis OG1RF biofilm. As to the kind of experiment: Biofilm assay (Calgary device). The note with it: 24 h biofilm of OG1RF, peptide 100 mg/L, 4 h, CFU enumerated. Type of experiment: cell-based, Enterococcus faecalis. The protocol: (§4) E. faecalis OG1RF, TX5427 or V583 were cultured in a Calgary device for 24h in THB. Biofilms were treated with peptides (100 mg/L) for 4h and surviving cells were sonicated and plated on THA for enumeration of CFUs.
(§5) Fig 3 Effect of GL13K peptides on biofilms of E. faecalis. Twenty-four hour biofilms of OG1RF; OG1RF dltA or V583 were treated with 100 mg/L of L-GL13K (L) or D-GL13K (D). Surviving CFU were enumerated from each peg and expressed relative to the mean CFU recovered from pegs of wild-type cells treated with buffer alone (OG1RF—C). Data from 2–4 experiments are expressed as mean ± SEM (N = 6–13). V583 was only treated with D-GL13K.

In experiment [6] the test system is E. faecalis OG1RF dltA (TX5427) biofilm. Briefly: Biofilm assay (Calgary device). Type of experiment: cell-based, Enterococcus faecalis. The note with it: 24 h biofilm of OG1RF dltA, peptide 100 mg/L, 4 h, CFU relative to the wild-type biofilm. The protocol: as §4, §5
The test system of experiment [7] is S. gordonii dltA mutant. As to the kind of experiment: Selection for peptide resistance, serial MIC assays. The experiment is classed as cell-based, Streptococcus gordonii. The note with it: repeated treatment with sub-inhibitory concentrations, 2–3 experiments. The protocol:
(§6) To investigate potential resistance development against the GL13K peptides, dilutions of the peptides were prepared and incubated as described for the MIC assay. The next day (day 0), the MIC was recorded and the culture in the well with the highest peptide concentration that allowed growth (i.e 0.5 x MIC) was diluted 1:100 and used as an inoculum for the next round of selection in a new MIC assay and so forth until a stable plateau of resistance was reached.
(§7) Fig 6 Development of resistance in S. gordonii. MICs for L-GL13K (circles) and D-GL13K (squares) were recorded on consecutive days using S. gordonii DL1 (wild-type) (open symbols) (D-enantiomer only) and dltA (closed symbols). The MIC for each day is expressed relative to the starting MIC (day 0). Data from 2–3 experiments are shown as mean ± range.

Experiment [8] has as its system S. gordonii DL1 (wild-type). The description is as above. The experiment is classed as cell-based, Streptococcus gordonii. The note with it: repeated treatment with sub-inhibitory concentrations, 2–3 experiments. The protocol:
as §6, §7

The test system of experiment [9] is S. gordonii DL1 dltA. As to the kind of experiment: Minimal inhibitory concentration, broth dilution. The experiment is classed as cell-based, Streptococcus gordonii. The note with it: THB, 20 h, 37°C, OD600, mean ± SEM. The protocol:
as §3

In experiment [10] the test system is S. gordonii DL1 atlS. As to the kind of experiment: Minimal inhibitory concentration, broth dilution. The experiment is classed as cell-based, Streptococcus gordonii. The note with it: THB, 20 h, 37°C, OD600, mean ± SEM. The protocol:
as §3

Where a SMILES comes first, the peptide text is derived from it.

`CC[C@H](C)[C@H](NC(=O)[C@H](CCCCN)NC(=O)CN)C(=O)N[C@H](C(=O)N[C@@H](CCCCN)C(=O)N[C@@H](CC(C)C)C(=O)N[C@@H](CCCCN)C(=O)N[C@@H](C)C(=O)N[C@@H](CO)C(=O)N[C@@H](CC(C)C)C(=O)N[C@@H](CCCCN)C(=O)N[C@@H](CC(C)C)C(=O)N[C@@H](CC(C)C)C(N)=O)[C@@H](C)CC` [L-GL13K, Gly-Lys-Ile-Ile-Lys-Leu-Lys-Ala-Ser-Leu-Lys-Leu-Leu-NH2] (H-GKIIKLKASLKLL-NH2; N-terminus assumed): the “Effect on Triton X-100 induced autolysis (OD600)” value in [1] is “somewhat reduced autolysis”. Further, in experiment [2], the “Peptide concentration required for complete killing” value turned out to be 48 ± 23 mg/L. Besides, the “Reduction of viable cells under autolysis conditions” value in experiment [3] is “small, yet non-significant, reduction of cell numbers”. The MIC – broadly, the least concentration at which growth counts as inhibited – came to 70 ± 17 mg/L in experiment [4], 11 ± 3 mg/L in experiment [9] and 63 ± 8 mg/L in [10]. Also, the “Reduction of viable biofilm CFU” value is “ineffective” in experiment [5] and “three orders of magnitude” in [6]. The “Increase of MIC relative to starting MIC (day 0)” value was determined as 16 fold in [7] and 6 fold in [8].
